From patent publication US10526327B2, “Histone demethylase inhibitors” (CELGENE QUANTICEL RESEARCH, INC., priority 2013, dated 2020) come the findings set out here.

The structures appear in SMILES notation. Some results are limits rather than exact numbers.

One experiment has as its target T1, Jarid1B (Homo sapiens, UniProt Q9UGL1).
T1 construct: purchased BPS Bioscience or custom made by MolecularThroughput 50121
T1 sequence (Q9UGL1 2-751): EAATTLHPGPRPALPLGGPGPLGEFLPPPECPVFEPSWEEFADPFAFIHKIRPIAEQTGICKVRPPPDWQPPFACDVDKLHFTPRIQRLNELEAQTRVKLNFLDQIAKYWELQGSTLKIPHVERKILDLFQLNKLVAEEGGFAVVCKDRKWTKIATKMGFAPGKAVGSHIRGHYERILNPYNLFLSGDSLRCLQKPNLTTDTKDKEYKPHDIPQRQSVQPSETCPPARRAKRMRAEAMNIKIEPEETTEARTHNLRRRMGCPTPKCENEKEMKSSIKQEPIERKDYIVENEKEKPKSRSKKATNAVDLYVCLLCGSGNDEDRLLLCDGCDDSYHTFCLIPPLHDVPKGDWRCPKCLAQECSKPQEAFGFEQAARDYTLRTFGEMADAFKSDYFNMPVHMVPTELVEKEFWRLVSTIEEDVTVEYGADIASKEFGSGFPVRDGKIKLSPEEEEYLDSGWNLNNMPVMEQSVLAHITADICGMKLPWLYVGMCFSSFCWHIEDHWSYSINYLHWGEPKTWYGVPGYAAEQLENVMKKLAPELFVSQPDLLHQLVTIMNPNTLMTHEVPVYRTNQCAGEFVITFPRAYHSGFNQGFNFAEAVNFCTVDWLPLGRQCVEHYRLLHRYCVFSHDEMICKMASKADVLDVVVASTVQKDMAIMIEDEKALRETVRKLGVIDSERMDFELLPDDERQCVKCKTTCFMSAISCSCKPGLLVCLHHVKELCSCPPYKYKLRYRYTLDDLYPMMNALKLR
The experiment is described as follows: Jarid1B in vitro enzyme inhibition assay (TR-FRET). The format is biochemical. The essentials: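 TR-FRET read-out of demethylated product (Eu-anti-H3K4me1-2, streptavidin-APC) after EDTA quench; ratio 665/615 fitted to IC50. Reaction: 30 min at RT, 0.8 nM baculovirus Jarid1B residues 2-751, 2 μM α-ketoglutarate, 300 nM H3K4me3-biotin peptide, pH 7.3 buffer with Fe(II) and ascorbate.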
For orientation: TR-FRET usually uses a lanthanide donor and a delayed reading to cut background.

In the next experiment the target is T2, JMJD2C (Homo sapiens, UniProt Q9H3R0).
T2 construct: purchased BPS Bioscience 50105
T2 sequence (Q9H3R0 2-372): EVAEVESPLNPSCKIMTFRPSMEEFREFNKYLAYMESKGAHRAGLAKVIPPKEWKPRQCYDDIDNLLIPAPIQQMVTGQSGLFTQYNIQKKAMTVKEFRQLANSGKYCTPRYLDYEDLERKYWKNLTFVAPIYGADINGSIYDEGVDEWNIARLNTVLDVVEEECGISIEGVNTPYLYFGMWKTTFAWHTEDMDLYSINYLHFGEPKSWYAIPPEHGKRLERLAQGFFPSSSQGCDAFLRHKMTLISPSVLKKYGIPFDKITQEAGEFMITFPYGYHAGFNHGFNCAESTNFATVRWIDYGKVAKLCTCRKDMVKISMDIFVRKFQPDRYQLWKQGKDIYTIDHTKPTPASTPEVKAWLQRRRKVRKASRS
Nature of the experiment: JMJD2C in vitro enzyme inhibition assay (TR-FRET). The format is biochemical. The essentials: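 IC50 came from 665/615 TR-FRET ratios (Eu-anti-H3K9me2 antibody, streptavidin-APC, EDTA quench) over 11-point inhibitor series. Reactions ran 30 min at room temperature: 0.3 nM JMJD2C (AA 2-372, baculovirus), 300 nM biotinylated H3K9me3 peptide, 2 μM alpha-ketoglutarate, 2 μM Fe(II), ascorbate, pH 7.3.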

The IC50 is the concentration that inhibits the measured activity by half. High values mean weaker potency in that assay, low ones greater potency in that assay. Consider `O=S(=O)(c1ccccc1)N1CCC(n2cc(Oc3nc(O)c4ccncc4n3)cn2)CC1` [Example 95, 2-[1-[1-(benzenesulfonyl)piperidin-4-yl]pyrazol-4-yl]oxypyrido[3,4-d]pyrimidin-4-ol], for which the half-inhibitory concentration (IC50) at Jarid1B and against JMJD2C was at most 100 nM throughout.

`Oc1nc(Oc2ccnc(N3CCNCC3)c2)nc2cnccc12` [Example 96, 2-(2-piperazin-1-ylpyridin-4-yl)oxypyrido[3,4-d]pyrimidin-4-ol]: the figures for the half-maximal inhibitory concentration (IC50) against Jarid1B and against JMJD2C were at most 100 nM and 100 to 1000 nM, respectively.

As for `Oc1nc(Oc2ccnc(N3CCOCC3)c2)nc2cnccc12` [Example 97, 2-(2-morpholin-4-ylpyridin-4-yl)oxypyrido[3,4-d]pyrimidin-4-ol], the IC50 against Jarid1B was at most 100 nM; against JMJD2C, 100 to 1000 nM.

With `Cn1cnc(-c2nccc3c(O)nc(OCC(C)(C)O)nc23)c1` [Example 98, 2-(2-hydroxy-2-methylpropoxy)-8-(1-methylimidazol-4-yl)pyrido[3,4-d]pyrimidin-4-ol], the IC50 was in the range of 100 to 1000 nM against Jarid1B and 1000 to 10000 nM against JMJD2C.

For the molecule `CC(c1ccccc1)n1cc(Oc2nc(O)c3ccncc3n2)cn1` (stereo not drawn) [Example 99], the IC50 against Jarid1B is at most 100 nM; on JMJD2C, 100 to 1000 nM.

As to `Cn1cnc(-c2nccc3c(O)nc(Oc4cnn(C5CCOCC5)c4)nc23)c1` [Example 100, 8-(1-methylimidazol-4-yl)-2-[1-(oxan-4-yl)pyrazol-4-yl]oxypyrido[3,4-d]pyrimidin-4-ol], the results for the IC50 against Jarid1B and against JMJD2C were at most 100 nM and 100 to 1000 nM, respectively.

For `Cn1cnc(-c2nccc3c(O)nc(OCc4ccccc4)nc23)c1` [Example 101, 8-(1-methylimidazol-4-yl)-2-phenylmethoxypyrido[3,4-d]pyrimidin-4-ol], the IC50 against Jarid1B was at most 100 nM; against JMJD2C it was 100 to 1000 nM.

On to `Cn1cnc(-c2nccc3c(O)nc(OCC4CCOCC4)nc23)c1` [Example 102, 8-(1-methyl-1H-imidazol-4-yl)-2-(oxan-4-ylmethoxy)pyrido[3,4-d]pyrimidin-4-ol], for which the IC50 at Jarid1B is 100 to 1000 nM; against JMJD2C it was at most 100 nM.

As to `Cn1cnc(-c2nccc3c(O)nc(OCC4CCOC4)nc23)c1` (stereo not drawn) [Example 103, 8-(1-methyl-1H-imidazol-4-yl)-2-(oxolan-3-ylmethoxy)pyrido[3,4-d]pyrimidin-4-ol], the IC50 against Jarid1B and against JMJD2C was at most 100 nM in each case.

For `Cn1cnc(-c2nccc3c(O)nc(OCc4cccc(F)c4)nc23)c1` [Example 104, 2-[(3-fluorophenyl)methoxy]-8-(1-methyl-1H-imidazol-4-yl)pyrido[3,4-d]pyrimidin-4-ol], the IC50 against Jarid1B and against JMJD2C was at most 100 nM in each case.

Regarding `Cn1cnc(-c2nccc3c(O)nc(OCc4ccccc4Cl)nc23)c1` [Example 105, 2-[(2-chlorophenyl)methoxy]-8-(1-methyl-1H-imidazol-4-yl)pyrido[3,4-d]pyrimidin-4-ol], the IC50 at Jarid1B and on JMJD2C was at most 100 nM each time.

As for `Cn1cnc(-c2nccc3c(O)nc(OCc4cccc(Cl)c4Cl)nc23)c1` [Example 106, 2-[(2,3-dichlorophenyl)methoxy]-8-(1-methyl-1H-imidazol-4-yl)pyrido[3,4-d]pyrimidin-4-ol], the IC50 at Jarid1B was at most 100 nM; against JMJD2C, 100 to 1000 nM.
